Test results published in ChEMBL document CHEMBL4304811, “Development of a Water-Soluble Indolylmaleimide Derivative IM-93 Showing Dual Inhibition of Ferroptosis and NETosis” (ACS Med Chem Lett, 2019).

Columns and labels:
[1] = biological target: Macrophage colony-stimulating factor 1 receptor (Homo sapiens) (UniProt P07333); assay: Binding affinity to wild-type human partial length CSF1R (I564 to S939 residues) expressed in bacterial expression system assessed as residual binding level at 10 uM by Kinomescan method relative to control
[2] = biological target: Serine/threonine-protein kinase BRSK2 (Homo sapiens) (UniProt Q8IWQ3); assay: Binding affinity to wild-type human full length BRSK2 (M1 to L674 residues) expressed in bacterial expression system assessed as residual binding level at 10 uM by Kinomescan method relative to control
[3] = biological target: Aurora kinase A (Homo sapiens) (UniProt O14965); assay: Binding affinity to wild-type human partial length AURKA (E122 to K401 residues) expressed in mammalian expression system assessed as residual binding level at 10 uM by Kinomescan method relative to control
[4] = biological target: Serine/threonine-protein kinase Nek10 (Homo sapiens) (UniProt Q6ZWH5); assay: Binding affinity to wild-type human partial length NEK10 (L488 to R809 residues) expressed in mammalian expression system assessed as residual binding level at 10 uM by Kinomescan method relative to control
[5] = biological target: Ephrin type-A receptor 7 (Homo sapiens) (UniProt Q15375); assay: Binding affinity to wild-type human partial length EPHA7 (Y608 to S912 residues) expressed in bacterial expression system assessed as residual binding level at 10 uM by Kinomescan method relative to control
[6] = biological target: Tyrosine-protein kinase JAK3 (Homo sapiens) (UniProt P52333); assay: Binding affinity to wild-type human partial length JAK3 JH1 catalytic domain (I781 to S1124 residues) expressed in mammalian expression system assessed as residual binding level at 10 uM by Kinomescan method relative to control
[7] = biological target: Tyrosine-protein kinase ABL1 (Homo sapiens) (UniProt P00519); assay: Binding affinity to wild-type human non-phosphorylated ABL1 (S229 to K512 residues) expressed in mammalian expression system assessed as residual binding level at 10 uM by Kinomescan method relative to control
[8] = biological target: Phosphorylase b kinase gamma catalytic chain, liver/testis isoform (Homo sapiens) (UniProt P15735); assay: Binding affinity to wild-type human partial length PHKG2 (M1 to W300 residues) expressed in bacterial expression system assessed as residual binding level at 10 uM by Kinomescan method relative to control
[9] = biological target: Serine/threonine-protein kinase MRCK alpha (Homo sapiens) (UniProt Q5VT25); assay: Binding affinity to wild-type human partial length MRCKA (L57 to V418 residues) expressed in bacterial expression system assessed as residual binding level at 10 uM by Kinomescan method relative to control
[10] = biological target: Serine/threonine-protein kinase 35 (Homo sapiens) (UniProt Q8TDR2); assay: Binding affinity to wild-type human partial length STK35 (G182 to A534 residues) expressed in bacterial expression system assessed as residual binding level at 10 uM by Kinomescan method relative to control
[11] = biological target: Dual specificity mitogen-activated protein kinase kinase 1 (Homo sapiens) (UniProt Q02750); assay: Binding affinity to wild-type human full length MEK1 (M1 to V393 residues) expressed in mammalian expression system assessed as residual binding level at 10 uM by Kinomescan method relative to control
[12] = biological target: Mitogen-activated protein kinase kinase kinase 4 (Homo sapiens) (UniProt Q9Y6R4); assay: Binding affinity to wild-type human partial length MAP3K4 (G1319 to E1608 residues) expressed in bacterial expression system assessed as residual binding level at 10 uM by Kinomescan method relative to control
[13] = biological target: Epithelial discoidin domain-containing receptor 1 (Homo sapiens) (UniProt Q08345); assay: Binding affinity to wild-type human partial length DDR1 (R565 to V876 residues) expressed in bacterial expression system assessed as residual binding level at 10 uM by Kinomescan method relative to control
[14] = biological target: Serine/threonine-protein kinase Sgk1 (Homo sapiens) (UniProt O00141); assay: Binding affinity to wild-type human partial length SGK (I60 to L431 residues) expressed in mammalian expression system assessed as residual binding level at 10 uM by Kinomescan method relative to control
[15] = biological target: RAC-gamma serine/threonine-protein kinase (Homo sapiens) (UniProt Q9Y243); assay: Binding affinity to wild-type human partial length AKT3 expressed in bacterial expression system assessed as residual binding level at 10 uM by Kinomescan method relative to control
[16] = biological target: Serine/threonine-protein kinase Nek4 (Homo sapiens) (UniProt P51957); assay: Binding affinity to wild-type human full length NEK4 (M1 to F841 residues) expressed in mammalian expression system assessed as residual binding level at 10 uM by Kinomescan method relative to control
[17] = test system: Phosphatidylinositol 4,5-bisphosphate 3-kinase catalytic subunit alpha isoform (Homo sapiens), P42336 [E545A]; assay: Binding affinity to human partial length PIK3CA E545A mutant (R108 to N1068 residues) expressed in mammalian expression system assessed as residual binding level at 10 uM by Kinomescan method relative to control
[18] = biological target: Serine/threonine-protein kinase PknB (Mycobacterium tuberculosis) (UniProt P9WI81); assay: Binding affinity to wild-type Mycobacterium tuberculosis partial length PKNB (M1 to G279 residues) expressed in mammalian expression system assessed as residual binding level at 10 uM by Kinomescan method relative to control
[19] = biological target: Inhibitor of nuclear factor kappa-B kinase subunit epsilon (Homo sapiens) (UniProt Q14164); assay: Binding affinity to wild-type human full length IKK-epsilon (M1 to V716 residues) expressed in mammalian expression system assessed as residual binding level at 10 uM by Kinomescan method relative to control
[20] = biological target: cGMP-dependent protein kinase 1 (Homo sapiens) (UniProt Q13976); assay: Binding affinity to wild-type human partial length PRKG1 (L339 to F686 residues) expressed in bacterial expression system assessed as residual binding level at 10 uM by Kinomescan method relative to control
[21] = biological target: Vascular endothelial growth factor receptor 2 (Homo sapiens) (UniProt P35968); assay: Binding affinity to wild-type human partial length VEGFR2 (R787 to P1253 residues) expressed in mammalian expression system assessed as residual binding level at 10 uM by Kinomescan method relative to control
[22] = biological target: Serine/threonine-protein kinase PAK 3 (Homo sapiens) (UniProt O75914); assay: Binding affinity to wild-type human full length PAK3 (M1 to R544 residues) expressed in bacterial expression system assessed as residual binding level at 10 uM by Kinomescan method relative to control
[23] = biological target: Serine/threonine-protein kinase PLK2 (Homo sapiens) (UniProt Q9NYY3); assay: Binding affinity to wild-type human partial length PLK2 (H58 to F354 residues) expressed in mammalian expression system assessed as residual binding level at 10 uM by Kinomescan method relative to control
[24] = biological target: Membrane-associated tyrosine- and threonine-specific cdc2-inhibitory kinase (Homo sapiens) (UniProt Q99640); assay: Binding affinity to wild-type human partial length PKMYT1 (A88 to G366 residues) expressed in bacterial expression system assessed as residual binding level at 10 uM by Kinomescan method relative to control

Sequence of Serine/threonine-protein kinase PLK2 (Homo sapiens) (Q9NYY3 whole entry, looked up, the tested form may be a part): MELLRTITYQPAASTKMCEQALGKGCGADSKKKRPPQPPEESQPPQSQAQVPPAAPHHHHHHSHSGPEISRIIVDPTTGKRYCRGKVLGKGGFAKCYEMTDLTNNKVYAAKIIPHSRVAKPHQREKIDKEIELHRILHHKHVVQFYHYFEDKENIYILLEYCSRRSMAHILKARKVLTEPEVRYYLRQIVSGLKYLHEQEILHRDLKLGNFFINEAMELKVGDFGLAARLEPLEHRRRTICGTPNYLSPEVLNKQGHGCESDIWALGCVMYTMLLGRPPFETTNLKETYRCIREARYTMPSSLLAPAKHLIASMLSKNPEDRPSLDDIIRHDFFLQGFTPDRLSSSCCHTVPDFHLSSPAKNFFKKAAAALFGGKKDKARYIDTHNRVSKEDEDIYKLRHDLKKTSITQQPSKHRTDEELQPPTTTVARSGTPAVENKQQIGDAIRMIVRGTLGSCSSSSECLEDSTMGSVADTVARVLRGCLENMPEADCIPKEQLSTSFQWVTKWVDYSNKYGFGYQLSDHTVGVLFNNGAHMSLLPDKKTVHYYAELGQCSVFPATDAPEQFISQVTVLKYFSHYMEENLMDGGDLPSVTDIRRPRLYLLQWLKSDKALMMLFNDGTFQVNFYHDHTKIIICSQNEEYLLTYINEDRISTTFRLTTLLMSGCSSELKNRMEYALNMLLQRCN
Sequence of Macrophage colony-stimulating factor 1 receptor (Homo sapiens) (P07333 whole entry, the tested form may be a part): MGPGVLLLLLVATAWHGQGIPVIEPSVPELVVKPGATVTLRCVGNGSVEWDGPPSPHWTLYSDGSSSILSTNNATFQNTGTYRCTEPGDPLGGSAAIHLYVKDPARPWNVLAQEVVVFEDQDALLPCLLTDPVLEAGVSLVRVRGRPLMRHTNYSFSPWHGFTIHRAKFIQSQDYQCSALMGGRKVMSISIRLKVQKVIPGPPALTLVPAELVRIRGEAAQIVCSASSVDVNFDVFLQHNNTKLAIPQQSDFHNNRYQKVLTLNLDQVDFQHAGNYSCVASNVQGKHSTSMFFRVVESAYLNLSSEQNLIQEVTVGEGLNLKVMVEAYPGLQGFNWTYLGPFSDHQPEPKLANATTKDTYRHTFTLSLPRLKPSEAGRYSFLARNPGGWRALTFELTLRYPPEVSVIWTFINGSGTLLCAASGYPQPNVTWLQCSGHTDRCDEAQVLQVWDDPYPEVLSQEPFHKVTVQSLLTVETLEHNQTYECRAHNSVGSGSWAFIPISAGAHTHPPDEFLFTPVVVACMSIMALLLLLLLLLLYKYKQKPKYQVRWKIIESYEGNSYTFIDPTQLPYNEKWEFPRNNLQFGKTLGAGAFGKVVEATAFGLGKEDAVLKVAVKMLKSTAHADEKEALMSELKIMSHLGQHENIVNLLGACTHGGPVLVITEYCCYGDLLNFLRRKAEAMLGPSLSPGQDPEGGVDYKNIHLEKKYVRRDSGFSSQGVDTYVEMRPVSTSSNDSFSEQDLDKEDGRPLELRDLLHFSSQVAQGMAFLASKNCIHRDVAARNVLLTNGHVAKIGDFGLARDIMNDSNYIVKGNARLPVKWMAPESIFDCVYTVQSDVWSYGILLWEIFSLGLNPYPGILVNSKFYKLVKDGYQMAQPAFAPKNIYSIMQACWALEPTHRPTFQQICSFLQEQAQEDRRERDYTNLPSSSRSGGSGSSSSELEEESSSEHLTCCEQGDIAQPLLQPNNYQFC
Sequence of Serine/threonine-protein kinase Nek4 (Homo sapiens) (P51957 whole entry, looked up, the tested form may be a part, canonical isoform): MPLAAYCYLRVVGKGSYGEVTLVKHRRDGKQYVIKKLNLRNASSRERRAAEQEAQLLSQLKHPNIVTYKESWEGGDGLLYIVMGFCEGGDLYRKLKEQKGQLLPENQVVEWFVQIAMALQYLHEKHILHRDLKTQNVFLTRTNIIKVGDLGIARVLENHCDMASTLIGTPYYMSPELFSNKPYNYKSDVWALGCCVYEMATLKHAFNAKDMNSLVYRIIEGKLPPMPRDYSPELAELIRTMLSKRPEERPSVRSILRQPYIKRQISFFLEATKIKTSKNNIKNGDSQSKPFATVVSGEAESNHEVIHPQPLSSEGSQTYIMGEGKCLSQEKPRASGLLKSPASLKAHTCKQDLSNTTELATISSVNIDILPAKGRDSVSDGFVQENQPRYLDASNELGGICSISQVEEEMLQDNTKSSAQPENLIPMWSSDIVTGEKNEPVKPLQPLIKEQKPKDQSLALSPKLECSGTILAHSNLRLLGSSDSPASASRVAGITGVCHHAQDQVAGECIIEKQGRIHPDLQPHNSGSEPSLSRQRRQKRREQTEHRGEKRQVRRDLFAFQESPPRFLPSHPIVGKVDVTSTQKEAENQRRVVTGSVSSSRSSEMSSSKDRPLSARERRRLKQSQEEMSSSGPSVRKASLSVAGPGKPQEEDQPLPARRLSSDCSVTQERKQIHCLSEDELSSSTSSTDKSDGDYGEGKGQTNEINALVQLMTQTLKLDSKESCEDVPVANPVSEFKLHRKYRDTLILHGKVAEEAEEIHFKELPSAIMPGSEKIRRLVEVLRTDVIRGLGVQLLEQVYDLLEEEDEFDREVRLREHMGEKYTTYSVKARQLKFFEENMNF
Sequence of Ephrin type-A receptor 7 (Homo sapiens) (Q15375 28-998 limits assumed): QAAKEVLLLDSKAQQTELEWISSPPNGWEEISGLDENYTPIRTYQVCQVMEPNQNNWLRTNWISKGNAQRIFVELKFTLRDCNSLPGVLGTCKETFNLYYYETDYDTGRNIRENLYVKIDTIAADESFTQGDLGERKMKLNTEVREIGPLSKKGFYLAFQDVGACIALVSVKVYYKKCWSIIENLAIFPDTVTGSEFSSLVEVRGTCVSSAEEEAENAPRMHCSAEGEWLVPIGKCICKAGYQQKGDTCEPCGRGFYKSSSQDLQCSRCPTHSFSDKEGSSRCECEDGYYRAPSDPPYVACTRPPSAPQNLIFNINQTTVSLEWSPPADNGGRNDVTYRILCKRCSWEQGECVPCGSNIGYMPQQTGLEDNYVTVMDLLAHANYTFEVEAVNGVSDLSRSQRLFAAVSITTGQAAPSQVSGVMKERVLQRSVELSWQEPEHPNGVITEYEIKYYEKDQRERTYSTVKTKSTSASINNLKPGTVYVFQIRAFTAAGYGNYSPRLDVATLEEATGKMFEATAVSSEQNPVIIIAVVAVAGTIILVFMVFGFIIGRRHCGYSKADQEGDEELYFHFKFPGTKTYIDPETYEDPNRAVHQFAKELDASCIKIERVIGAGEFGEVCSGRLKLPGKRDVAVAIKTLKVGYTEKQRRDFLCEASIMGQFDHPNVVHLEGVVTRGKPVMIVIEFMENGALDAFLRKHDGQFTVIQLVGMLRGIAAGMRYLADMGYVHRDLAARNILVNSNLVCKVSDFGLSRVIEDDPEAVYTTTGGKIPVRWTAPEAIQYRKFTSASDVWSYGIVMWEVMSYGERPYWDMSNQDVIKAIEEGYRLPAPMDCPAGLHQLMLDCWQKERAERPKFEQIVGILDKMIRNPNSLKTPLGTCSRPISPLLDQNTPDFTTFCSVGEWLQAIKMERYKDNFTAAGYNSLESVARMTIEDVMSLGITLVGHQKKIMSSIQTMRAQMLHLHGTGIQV
Sequence of Phosphorylase b kinase gamma catalytic chain, liver/testis isoform (Homo sapiens) (P15735 whole entry, the tested form may be a part, canonical isoform): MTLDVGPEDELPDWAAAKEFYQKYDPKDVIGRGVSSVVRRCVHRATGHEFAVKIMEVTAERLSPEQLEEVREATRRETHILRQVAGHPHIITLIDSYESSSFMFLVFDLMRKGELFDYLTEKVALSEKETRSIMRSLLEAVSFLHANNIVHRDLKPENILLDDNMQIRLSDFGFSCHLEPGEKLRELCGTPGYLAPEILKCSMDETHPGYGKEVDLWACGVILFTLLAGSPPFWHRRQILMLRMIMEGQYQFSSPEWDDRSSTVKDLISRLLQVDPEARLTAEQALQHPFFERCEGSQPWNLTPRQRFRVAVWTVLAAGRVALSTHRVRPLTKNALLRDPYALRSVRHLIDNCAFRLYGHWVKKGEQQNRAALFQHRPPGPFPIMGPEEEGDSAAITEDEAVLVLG
Sequence of Aurora kinase A (Homo sapiens) (O14965 whole entry, the tested form may be a part): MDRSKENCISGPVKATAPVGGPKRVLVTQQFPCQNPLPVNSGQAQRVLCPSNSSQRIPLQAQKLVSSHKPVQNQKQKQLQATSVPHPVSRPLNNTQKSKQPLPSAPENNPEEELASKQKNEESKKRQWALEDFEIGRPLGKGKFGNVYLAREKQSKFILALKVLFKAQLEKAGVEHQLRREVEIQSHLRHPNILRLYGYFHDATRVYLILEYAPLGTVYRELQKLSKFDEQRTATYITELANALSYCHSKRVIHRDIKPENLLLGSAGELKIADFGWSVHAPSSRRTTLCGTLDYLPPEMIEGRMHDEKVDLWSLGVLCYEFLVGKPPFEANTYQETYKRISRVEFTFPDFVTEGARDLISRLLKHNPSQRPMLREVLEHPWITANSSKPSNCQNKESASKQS
Sequence of Serine/threonine-protein kinase Sgk1 (Homo sapiens) (O00141 whole entry, the tested form may be a part): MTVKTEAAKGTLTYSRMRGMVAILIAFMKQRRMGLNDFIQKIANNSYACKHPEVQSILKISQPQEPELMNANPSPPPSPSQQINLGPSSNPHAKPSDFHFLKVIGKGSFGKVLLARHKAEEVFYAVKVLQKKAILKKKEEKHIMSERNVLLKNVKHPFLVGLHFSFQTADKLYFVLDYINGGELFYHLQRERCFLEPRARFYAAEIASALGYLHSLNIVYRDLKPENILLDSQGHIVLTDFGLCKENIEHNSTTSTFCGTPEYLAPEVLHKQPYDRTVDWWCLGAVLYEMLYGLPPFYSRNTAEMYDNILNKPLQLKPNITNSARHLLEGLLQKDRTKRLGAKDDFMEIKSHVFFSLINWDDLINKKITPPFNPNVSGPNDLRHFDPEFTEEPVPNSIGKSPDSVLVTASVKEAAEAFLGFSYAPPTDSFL

SMILES: CC(C)N1C(=O)C(NCCCN(C)C)=C(c2cn(C)c3ccccc23)C1=O.Cl
- Activity [1]: 97%
- Activity [2]: 86%
- Activity [3]: 90%
- Activity [4]: 95%
- Activity [5]: 93%
- Activity [6]: 81%
- Activity [7]: 84%
- Activity [8]: 100%
- Activity [9]: 98%
- Activity [10]: 100%
- Activity [11]: 84%
- Activity [12]: 85%
- Activity [13]: 100%
- Activity [14]: 95%
- Activity [15]: 99%
- Activity [16]: 96%
- Activity [17]: 95%
- Activity [18]: 91%
- Activity [19]: 77%
- Activity [20]: 91%
- Activity [21]: 66%
- Activity [22]: 100%
- Activity [23]: 97%
- Activity [24]: 88%
